Assay results published in US8975259B2, “Compositions and methods for inhibiting G protein signaling” (University of Rochester, priority 2007, dated 2015).
Entries after “also recorded” stand apart in the source; their conditions may differ. No end group written: not given here.

What was measured:
[1] = test system: human δ opioid receptor (hDOR-CHO cells); test: Total inositol phosphate assay in hDOR-CHO cells; assay type: cell-based; details: DPDPE, Deltorphin II, M119 10 μM; naltrindole 100 μM; result in words
Description: (§1) Chinese hamster ovary (CHO) cells stably expressing either the human κ (hKOR-CHO), δ (hDOR-CHO)(L. Toll, Stanford Research Institute, Palo Alto, Calif.) or μ (hMOR-CHO)(G. Uhl, National Institute on Drug Abuse, Baltimore, Md.) opioid receptor were used in the experiments. Cells in 6-well plates were labeled by adding 4 μCi of [^3H]inositol for 24 hr in inositol-free F-10 media, without serum. After labeling, LiCl was added directly to the labeling media at a final concentration of 10 mM. Ligands or peptides were added at the same time. The final volume of each well was 1 mL. The plates were put back in to the incubator at 37° C. for 30 min after which time the medium was aspirated and the plates were washed twice with 1× PBS. Ice-cold 50 mM formic acid, 1 mL, was added to the plates which were placed in the cold room at 4° C. for 30 min. After the incubation, the contents of the plates were applied to Dowex AG1-X8 columns and allowed to flow all the way through the column. The columns were washed, twice each, with 50 and 100 mM formic acid, for a total of four washes, followed by elution of the IP-containing fraction with 3 mL of 1.2 M ammonium formate/0.1 M formic acid. The eluted fraction was mixed with Scintisafe scintillation fluid, for high salt, and counted. The data are represented as the fold increase over control in total inositol phospates. All experiments were repeated three times and performed in duplicate. Control cells for each experiment were labeled with [^3H]inositol and LiCl, in the same manner as the treatment groups.

[2] = test system: opioid-induced antinociception in mice; test: 55° C. warm-water tail-flick antinociception; assay type: in vivo, mouse; details: i.c.v., 20 min, 55° C. tail-flick; 95% CL in parentheses
[3] = test system: human μ opioid receptor (hMOR-CHO cells); test: Total inositol phosphate assay in hMOR-CHO cells; assay type: cell-based
Description: as §1

Fαi1GDPβ1γ2 heterotrimer = biological target: T1, Fαi1GDPβ1γ2 heterotrimer (UniProt P54311+P63212); test: Dissociation of Fαi1 from preformed Fαi1β1γ2 heterotrimer (flow cytometry); assay type: binding; details: result in words
T1 construct: made in house; host or cells: b-βγ: Sf9 insect cells

PLCβ2 = details: Scott, et al. (2001); read-out: IC50 for inhibition of PLC β2 activation by Gβ1γ2; cited from earlier work
[4] = test system: ERK1 and ERK2 activation in differentiated HL60 cells; test: fMLP-induced ERK1 and ERK2 activation in differentiated HL60 cells; assay type: cell-based, human; details: 10 μM compound, 1 μM fMLP; result in words
Description: (§2) Cells were pretreated with DMSO or 10 μM compounds for 5 min prior to stimulation with 250 nM fMLP. […] Normalized peak Ca^2+ responses were pooled from three independent experiments each (mean±SEM). Cells were pretreated with DMSO (▪) or compounds (▴) for 5 min prior to stimulation. FIG. 5C is the same as A except 10 μM M201 was tested. […] Differentiated HL60 cells were treated with 10 μM compound prior to stimulation with 250 nM fMLP. Translocation of endogenous GRK2 was determined by Western blotting with a GRK2 antibody and quantitative chemiluminescence. Data are mean±SEM from 5 experiments, * P<0.05, **P<0.01 ANOVA. […] Differentiated HL60 cells stably over-expressing GFP-PHAkt were treated with 10 μM compound prior to stimulation with 100 nM fMLP. Translocation of GFP-PHAkt to the membrane was determined by Western blotting with an anti-GFP antibody and quantitative chemiluminescence. Data are mean±SEM from 4 experiments. *** P<0.001 ANOVA. […] Differentiated HL60 cells were pretreated with 10 μM of compound prior to stimulation with 1 μM fMLP for 5 min. Levels of phosphorylated and total ERK were determined by Western blotting.

[5] = test system: fMLP-dependent Ca2+ release in differentiated HL60 cells; test: fMLP-dependent Ca2+ release in fura-2 loaded DMSO-differentiated HL60 cells; assay type: cell-based, human; details: 10 μM compound, 250 nM fMLP; result in words
Description: as §2
Ca^2+ fluxes were measured using two 35 mL cultures of differentiated HL-60 neutrophil cultures (0.2×10^6 cells/mL). Cells were cultured for three days with in DMSO
(1.2%), washed in HSS and resuspended in 2 mL HBSS at a concentration of 7×10^s cells/mL. Addition of DMSO to the growth medium induces differentiation of these cells into morphologically and functionally mature neutrophils
(Collins, et al. (1978) Proc. Natl. Acad. Sci. USA 75:2458; Collins, et al. (1979) J. Exp. Med. 149:969). Neutrophils were preloaded with fura-2 (1 μM), a fluorescent Ca^2+-sensitive indicator (Suh, et al. (1996) J. Biol. Chem. 271:32753), for 45 minutes, washed with HBSS and resuspended in 2 mL of indicator-free HBSS. An 140 μL aliquote of cells was added to a total of 2 mL HBSS. Fluorescence ratios were taken by dual excitation at 340 and 380 nm and emission at 510 nm. After a stable baseline was established, either DMSO or NSC119910 was added and incubated for 5 minutes. […]

Gαi1-Gβ1γ2 interaction = biological target: T2, Gαi1-Gβ1γ2 interaction (UniProt P54311+P63212); test: Flow cytometry competition for FITC-Gαi1 binding to immobilized b-Gβ1γ2; details: peptides; read-out: IC50 for competition with Gαi binding to Gβ1γ2
T2 construct: made in house; host or cells: b-βγ: Sf9 insect cells
Description: (2003) supra; Sarvazyan, et al. (1998) J. Biol. […] Fluorescein-labeled Ga^ (Fan) was prepared in accordance with standard methods (Sarvazyan, et al. (1998) supra). Assays were used to determine peptide effects on Gα-Gβγ interactions included competition and dissociation assays (Ghosh, et al. (2003) supra). […] The bead-associated fluorescence was then recorded in a BD Biosciences […] flow cytometer. Data was corrected for background fluorescence and fit with a sigmoid dose response curve using Graph Pad Prism 4. To measure dissociation of Fan from b-Gβaγ2, 100 pM of Fa^ was incubated with 50 pM immobilized b-Gβ1γ2 at room temperature for 15-20 minutes.

Q: Which “effect on IP generation over control treated cells” value [1] does the source give for [D-Pen^2,D-Pen^5]enkephalin [DPDPE] here?
A: neither DPDPE (10 μM) (FIG. 15C) nor Deltorphin II (10 μM) (FIG. 15D) significantly increased IP generation

Q: And the “ED50 of opioid agonist alone” value [2]?
A: 6.5 nmol

Q: And the “effect of compound by itself on IP production” value [3]?
A: no effect

Q: For `Oc1ccc2c3c1O[C@H]1c4[nH]c5ccccc5c4C[C@@]4(O)[C@@H](C2)N(CC2CC2)CC[C@]314` [naltrindole], which “effect on IP generation over control treated cells” value [1] is on record?
A: no significant effect

Q: With `COC(=O)/C=C/C(=O)N[C@@H]1CC[C@@]2(O)[C@H]3Cc4ccc(O)c5c4[C@@]2(CCN3CC2CC2)[C@H]1O5` [β-FNA, β-funaltrexamine] as the compound, how does the “effect on DAMGO- and morphine-dependent IP production” value [3] read?
A: attenuated

Q: Which “promotion/acceleration of heterotrimer dissociation” value (shortened to “promotion/acceleration”) (Fαi1GDPβ1γ2 heterotrimer) does the source give for `CC[C@H](C)[C@H](NC(=O)[C@H](CC(N)=O)NC(=O)[C@H](CC(C)C)NC(=O)[C@H](C)NC(=O)[C@H](CCCCN)NC(=O)[C@H](CCCNC(=N)N)NC(=O)[C@@H](NC(=O)[C@@H](N)CO)[C@@H](C)CC)C(=O)N[C@@H](CC(C)C)C(=O)NCC(=O)N[C@@H](Cc1ccc(O)cc1)C(=O)N1CCC[C@H]1C(=O)N[C@@H](CC(=O)O)C(=O)N[C@@H](Cc1ccc(O)cc1)C(=O)N[C@@H](CC(=O)O)C(=O)O` [SIRK] here?
A: promotes dissociation

Q: What about the IC50 (PLCβ2) of the same compound?
A: 5 µM

Q: With `O=C(O)c1cccc2cccc(-c3c4ccc(=O)c(O)c-4oc4c(O)c(O)ccc34)c12` [Compound M119K] as the compound, how does the “effect on fMLP-induced activation of ERK1 and ERK2” value [4] read?
A: without interfering

Q: What about the “effect on fMLP-induced Ca^2+ increase” value [5] of the same compound?
A: block

Q: With `C[C@H](NC(=O)[C@H](CS)NC(=O)[C@@H](N)CO)C(=O)N[C@@H](CCCNC(=N)N)C(=O)N[C@@H](Cc1ccccc1)C(=O)N[C@@H](Cc1ccccc1)C(=O)NCC(=O)N[C@H](C(=O)N1CCC[C@H]1C(=O)NCC(=O)N[C@@H](CS)C(=O)N[C@H](C(=O)O)[C@@H](C)O)[C@@H](C)O` [SCAR] as the compound, how does the “promotion/acceleration” value (Fαi1GDPβ1γ2 heterotrimer) read?
A: could not promote dissociation of a preformed heterotrimer; also recorded: the same as the intrinsic rate

Q: What does the source list for `C[C@@H](NC(=O)[C@@H](N)Cc1ccc(O)cc1)C(=O)NCC(=O)N(C)[C@@H](Cc1ccccc1)C(=O)NCCO` [DAMGO, [D-Ala^2, N-Me-Phe^4, Gly^5-ol]-enkephalin]?
A: ED50 of opioid agonist alone [2]: 0.07 nmol; increase in total IP compared to control [3]: 4 fold

Q: With `CC[C@H](C)[C@H](NC(=O)[C@H](CC(N)=O)NC(=O)[C@H](CC(C)C)NC(=O)[C@H](C)NC(=O)[C@H](C)NC(=O)[C@H](CCCNC(=N)N)NC(=O)[C@@H](NC(=O)[C@@H](N)CO)[C@@H](C)CC)C(=O)N[C@@H](CC(C)C)C(=O)NCC(=O)N[C@@H](Cc1ccc(O)cc1)C(=O)N1CCC[C@H]1C(=O)N[C@@H](CC(=O)O)C(=O)N[C@@H](Cc1ccc(O)cc1)C(=O)N[C@@H](CC(=O)O)C(=O)O` [SIRK(Lys4Ala)] as the compound, how does the “promotion/acceleration” value (Fαi1GDPβ1γ2 heterotrimer) read?
A: failed to accelerate heterotrimer dissociation

Q: Which IC50 (Gαi1-Gβ1γ2 interaction) does the source give for SIRKALNILAYPDYD [SIRK(GIyIOAIa)] here?
A: ~80 µM

Q: And the “promotion/acceleration” value (Fαi1GDPβ1γ2 heterotrimer)?
A: could still accelerate heterotrimer dissociation
